# Measurements from PubChem BioAssay AID1035470 (Broad Institute, 2014).
# Inconclusive results are not listed. Activity calls are given as the source filed them.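 How the source made its calls: active means compound lowering the normal-ribosome reporter at least twice as much as the humanized-ribosome reporter, growth loss under a set limit; inconclusive means no clear call, values can overlap the other calls; inactive means the rest.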
# Test system: E. coli WT-GFP vs G2058-humanized RFP, fluorescence, 24 h
# Experiment: E. coli strain growth, wild-type against G2058 humanized RFP mutant – G2058 mutant RFP vs wild-type GFP, cherry-pick, two tests, dose response (AID 1035470)
# [1] = E. coli WT-GFP vs G2058-humanized RFP mixed culture, total growth OD600, 24 h
# [2] = measured here: G2058 humanized mutant RFP growth
Compound,AC50,AC50 [1],AC50 [2]
COc1cc(C2CC(=O)Oc3cc(C)cc(C)c32)cc(OC)c1OC (stereo not drawn),> 100 µM (inactive),–,–
Cc1cccc(NC(=O)c2c(C)nn(-c3ccccc3)c2Cl)c1,–,> 100 µM,–
CCN(CC)CCn1c(SCC(=O)Nc2cccc(OC)c2)nc2c(sc3ccccc32)c1=O,> 100 µM (inactive),> 100 µM,–
COc1ccc(-c2csc(NC(=O)c3ccoc3C)n2)cc1,–,> 100 µM,–
COc1cc(NC(=O)COC(=O)CC(C)(C)C)c(C)cc1[N+](=O)[O-],> 100 µM (inactive),> 100 µM,–
COC(=O)c1cccc(CN2C(=O)SC(Nc3ccc(C)cc3)C2=O)c1 (stereo not drawn),> 100 µM (inactive),–,–
Cc1ccccc1NS(=O)(=O)c1cc(C(=O)NCCC2=CCCCC2)ccc1C,> 100 µM (inactive),–,–
CCc1cc2cc(OC)ccc2nc1SCC(=O)Nc1cc(OC)c(OC)cc1C(=O)O,> 100 µM (inactive),> 100 µM,–
CCOC(=O)c1sc(Nc2cccc(Cl)c2)nc1C,> 100 µM (inactive),–,–
O=C(Nc1cccc2ccccc12)c1ccc([N+](=O)[O-])o1,> 100 µM (inactive),> 100 µM,–
Cn1cc(CN2CCCC(C(=O)Nc3cccc(-c4cc5ccccc5[nH]4)c3)C2)cn1 (stereo not drawn),> 100 µM (inactive),–,–
Cc1ccccc1-n1c([C@@H]2C[C@H]2c2ccccc2)n[nH]c1=S,–,> 100 µM,–
O=[N+]([O-])c1ccccc1Oc1ccc(Cl)c2cccnc12,> 100 µM (inactive),–,–
CS(=O)(=O)NCCSc1cc(C(F)(F)F)nc2ccccc12,> 100 µM (inactive),–,–
Brc1cc2c(cc1Br)OCCOCCOCCO2,> 100 µM (inactive),> 100 µM,> 100 µM
CCC(=O)Nc1nc2c(OC)ccc(OC)c2s1,> 100 µM (inactive),–,–
O=C(C[C@H]1CC[C@H](NC(=O)Nc2ccccc2F)[C@H](CO)O1)NCc1ccc(-c2ccccc2)cc1,> 100 µM (inactive),> 100 µM,–
CCOC(=O)c1cc(-c2ccc(OC)cc2)n[nH]1,> 100 µM (inactive),–,–
O=C(C1Cc2ccccc2CN1C(=O)c1ccccc1)N1CCN(c2ccccc2)CC1 (stereo not drawn),> 100 µM (inactive),> 100 µM,> 100 µM
Cc1nnn(C23CC4CC(CC(CC(=O)Nc5ccc(C)c(C)c5)(C4)C2)C3)n1,> 100 µM (inactive),> 100 µM,–
CC(=O)Oc1ccc(N(C(C)=O)S(=O)(=O)c2ccc(C)cc2)c2ccccc12,> 100 µM (inactive),> 100 µM,–
O=C(COn1nnc2ccc(C(F)(F)F)cc21)Nc1c(Cl)cccc1Cl,> 100 µM (inactive),> 100 µM,–

Compound,AC50,AC50 [1],AC50 [2]
O=C(Nc1ccc2c(c1)OCO2)c1ccc([N+](=O)[O-])cc1[N+](=O)[O-],> 100 µM (inactive),–,–
CN(C)CCNc1ncnc2c1sc1nc(N3CCCC3)c3c(c12)CC(C)(C)OC3,> 100 µM (inactive),> 100 µM,–
COc1cccc(-c2ccc(NC(=O)C3CCCN(Cc4cnn(C(C)C)c4)C3)cc2)c1 (stereo not drawn),> 100 µM (inactive),–,–
FC(F)(F)c1ccc(Cl)c(-n2c(Cc3cccs3)n[nH]c2=S)c1,> 100 µM (inactive),–,–
O=C(Nc1cccc(O)c1)c1cccc(S(=O)(=O)Nc2cccc(O)c2)c1,> 100 µM (inactive),–,–
COc1cc2[nH]c(=S)nc(NCCc3ccc(C)cc3)c2cc1OC,> 100 µM (inactive),–,–
Cc1ccccc1OCc1nc2ccccc2n1C,> 100 µM (inactive),–,–
Cc1cccc(OCCC(=O)Nc2ccc(F)c(F)c2)c1,> 100 µM (inactive),–,–
O=C(Nc1ccc2nc(-c3cccnc3)[nH]c2c1)c1ccco1,> 100 µM (inactive),–,> 100 µM
CSCCC1NC(=O)N(C(C)C(=O)Nc2cc(Cl)cc(Cl)c2)C1=O (stereo not drawn),> 100 µM (inactive),> 100 µM,7.38 µM
CCOc1ccc(C(C)=O)cc1CN1C(=O)NC2(CCCCCCC2)C1=O,> 100 µM (inactive),> 100 µM,–
Fc1ccc(-c2nc3ccc(Cl)cn3c2Cc2cccc(Cl)c2)cc1,–,> 100 µM,–
Cc1ccc2nc(-c3ccc(Cl)cc3)c(Cc3ccccc3C(F)(F)F)n2c1,–,> 100 µM,–
Cc1ccc(S(=O)(=O)Nc2ccccc2CNc2cccc(C)n2)cc1,> 100 µM (inactive),> 100 µM,–
COc1cccc(NC(=O)C(C)SCc2ccccc2)c1 (stereo not drawn),–,> 100 µM,–
C[n+]1ccccc1/C=C/c1cc(Br)ccc1O,> 100 µM (inactive),–,–
CCn1ncc(Br)c1C(=O)Nc1ccc2c(c1)OCCO2,> 100 µM (inactive),–,–
O=C(Nc1cc(S(=O)(=O)N2CCCCC2)ccc1N1CCCCC1)C1CC1,> 100 µM (inactive),–,–
CCCN(Cc1ccco1)S(=O)(=O)c1ccc(OC)c(OC)c1,> 100 µM (inactive),> 100 µM,> 100 µM
O=S1(=O)N[C@H](Cc2ccccc2)COc2cc(N3CCSCC3)ccc21,–,> 100 µM,–
Cc1cc(C)n2nc(C(=O)Nc3cccc(S(=O)(=O)N(C)c4ccccc4)c3)nc2n1,> 100 µM (inactive),–,–
O=C1OCCC1Sc1nc2ccccc2c(=O)n1Cc1ccccc1 (stereo not drawn),> 100 µM (inactive),–,–

Compound,AC50,AC50 [1],AC50 [2]
O=C1c2cccc3cccc(c23)C(=O)N1c1ccccc1Cl,> 100 µM (inactive),–,–
CN(c1ccccc1)S(=O)(=O)c1cccc(NC(=O)CCNC(=O)c2ccc([N+](=O)[O-])cc2)c1,> 100 µM (inactive),–,–
Cc1ccc(C)c(N2CCN(C(=O)CCS(=O)(=O)c3ccc4c(c3)oc(=O)n4C)CC2)c1,–,> 100 µM,–
COc1ccc(NC(=O)CCC(=O)c2cccs2)cc1S(=O)(=O)Nc1ccc(Cl)cc1,> 100 µM (inactive),–,–
c1ccc(Nc2ccc3ccccc3c2)cc1,> 100 µM,–,> 100 µM
COC(=O)c1ccc(CCc2cc(O)c(Br)cc2O)cc1,–,> 100 µM,–
Cc1cc(C(=O)NCCC2=CCCCC2)ccc1[N+](=O)[O-],> 100 µM (inactive),> 100 µM,–
CCOc1ccc2oc(-c3ccccc3)c(C(=O)N(C)C)c2c1,> 100 µM (inactive),> 100 µM,–
Cc1ccc(CNS(=O)(=O)c2ccc3c(c2)NC(=O)CS3)cc1,> 100 µM (inactive),–,–
Cc1ccc(-c2nc3ccc(NS(=O)(=O)c4ccccc4)cc3[nH]2)o1,> 100 µM (inactive),–,–
COc1cccc(S(=O)(=O)N2CCCCN3[C@H](C2)[C@H](c2ccc(C#CC(C)C)cc2)[C@@H]3CO)c1,> 100 µM (inactive),–,–
Nc1ncncc1-c1ccc2ccccc2c1,> 100 µM (inactive),–,48.9 µM
COc1ccccc1NC(=O)COC(=O)Cc1c[nH]c2ccccc12,–,–,> 100 µM
O=C(Cn1cc(COc2c(F)c(F)cc(F)c2F)nn1)c1ccc(O)cc1,> 100 µM (inactive),> 100 µM,–
O=C(O)CCn1c(SCc2cccc3ccccc23)nc2ccccc21,> 100 µM (inactive),> 100 µM,–
CN(C)CCCNc1ccc(-c2cc(Nc3cccc(Cl)c3)ncn2)cn1,> 100 µM (inactive),–,–
CCOC(=O)c1cc(C)nc(N2CCCCC2)c1C#N,> 100 µM (inactive),> 100 µM,–
O=C(CN1C(=O)c2ccccc2C1=O)Nc1cccc(S(=O)(=O)Nc2ccccc2Cl)c1,> 100 µM (inactive),> 100 µM,–
CCN(C(=O)CSc1cc(C)c2ccc(OC)cc2n1)C1CCS(=O)(=O)C1 (stereo not drawn),> 100 µM (inactive),–,3.93 µM
CC(C)(C)c1ccc(-c2noc(CCC(=O)NCc3ccco3)n2)cc1,> 100 µM (inactive),> 100 µM,> 100 µM
Cn1nc(C(=O)Nc2cccc(S(=O)(=O)N3CCCCC3)c2)c2ccccc2c1=O,> 100 µM (inactive),> 100 µM,–
CC(C)(C)CC(=O)Nc1ccccc1N1CCN(c2ccccc2)CC1,> 100 µM (inactive),–,–

Compound,AC50,AC50 [1],AC50 [2]
COc1ccc(OC2C(=O)N(Cc3ccc4c(c3)OCO4)C2c2sccc2C)cc1 (stereo not drawn),> 100 µM (inactive),> 100 µM,–
Fc1cccc(CCN2C(=S)NC[C@@H]2CC2CCCCC2)c1,> 100 µM (inactive),–,–
COc1ccc(-c2cc(C(=O)N3CCc4ccccc4C3)no2)cc1,> 100 µM (inactive),–,–
CN1OC[C@@H]2CN(C(=O)c3ccco3)[C@H](c3ccc(-c4ccc(C#N)cc4)cc3)C[C@@H]21,> 100 µM (inactive),> 100 µM,–
Cc1ncoc1C(=O)NCCC(c1ccccc1)c1ccccc1,> 100 µM (inactive),–,–
Cc1cc(C(=O)OCC(=O)Nc2cccc(S(N)(=O)=O)c2)c2ccccc2n1,> 100 µM (inactive),–,–
CC(C)n1nnnc1C1c2ccccc2C(=O)N1CCOc1ccccc1 (stereo not drawn),> 100 µM (inactive),–,–
CCCCn1c(=O)[nH]c(=O)c2c1nc(-c1ccccc1F)n2Cc1ccccc1,> 100 µM (inactive),> 100 µM,–
O=C(COC(=O)Cc1ccccc1F)Nc1ccc(Cl)cn1,> 100 µM (inactive),–,–
CCOc1ccc(CN(C)C(=O)c2ccc(NS(=O)(=O)c3ccc4[nH]c(=O)[nH]c4c3)cc2)cc1,–,> 100 µM,–
Cc1c(-c2cccc(Cl)c2)nc2ccccc2c1C(=O)N1CCC2(CC1)OCCO2,> 100 µM (inactive),–,–
COc1cc(OC)cc(C(=O)Nc2ccc(S(=O)(=O)Nc3cnc4ccccc4n3)cc2)c1,> 100 µM (inactive),–,–
Cc1cccc(C(=O)NCC(=O)NCCSc2ccc(Br)cc2)c1,> 100 µM (inactive),–,7.48 µM
O=C(c1ccc(Cl)cc1)N1CCN(c2cccc3[nH]ccc23)CC1,> 100 µM (inactive),> 100 µM,–
O=C(Nc1cccc(S(=O)(=O)c2cccc(NC(=O)C3CC3)c2)c1)C1CC1,–,> 100 µM,–
COc1cccc(NC(=O)COC(=O)Cc2ccccc2[N+](=O)[O-])c1,> 100 µM (inactive),> 100 µM,–
CCOC(=O)c1ccc(NC(=O)COc2ccc(CNCCO)cc2OCC)cc1,> 100 µM (inactive),–,–
Oc1ccc(-c2csc(Nc3ncccn3)n2)cc1,–,> 100 µM,> 100 µM
Cn1nc(C(C)(C)C)c([N+](=O)[O-])c1C(=O)Nc1ccc(Br)cc1,> 100 µM (inactive),–,–
CCC(C(=O)NC1CCCC1)n1c(-c2ccnc3ccccc23)nc2ccccc21 (stereo not drawn),–,> 100 µM,–
N#CCC(=O)Nc1ccc(C(=O)OCC(=O)Nc2ccc3ccccc3c2)cc1,> 100 µM (inactive),–,–
C=CCn1c(SCc2n[nH]c(=S)n2-c2ccccc2)nnc1-c1ccccc1,> 100 µM (inactive),> 100 µM,–
